Experimental data taken from paper PMC4715021, “^177Lu-labelled macrocyclic bisphosphonates for targeting bone metastasis in cancer treatment” (EJNMMI Research, 2016).
Several values for one entry are separate records, joined by “and”; a condition that tells them apart may be missing. Equal values may be shown once.

Experiments:
[1] = Ex vivo biodistribution of 177Lu-complexes in Wistar rats; settings: for Biodistribution of radioactivity, Adipose tissue / Biodistribution of radioactivity, Adrenal gland / Biodistribution of radioactivity, Blood / Biodistribution of radioactivity, Brain / Biodistribution of radioactivity, Femur / Biodistribution of radioactivity, Harderian gland / Biodistribution of radioactivity, Heart / Biodistribution of radioactivity, Kidneys / Biodistribution of radioactivity, Liver / Biodistribution of radioactivity, Lung / Biodistribution of radioactivity, Muscle / Biodistribution of radioactivity, Pancreas / Biodistribution of radioactivity, Spleen / Biodistribution of radioactivity, Testes / Biodistribution of radioactivity, Thymus: i.v.
Excerpt: (§1) The experiments were realized corresponding to the German animal welfare regulations and institutional guidelines and with the permission of the local animal research committee at the Landesdirektion, Dresden. All experimental procedures are following the guidelines of the European Convention for the Protection of Vertebrate Animals used for Experimental and other Scientific Purposes (ETS No. 123). Male Wistar rats weighing 157.69 ± 17.10 g (mean ± SD, N = 35) were purchased from Unilever (HsdCpb:WU, Harlan Winkelmann, Borchen, Germany). Anesthetization was initiated and maintained by desflurane, and animals were put in the supine position and placed on a heating pad to maintain body temperature. A needle catheter was used for administration of the tracers in the tail vein. A second catheter was introduced into the right femoral artery for the extraction of blood samples for metabolite analysis, which was routinely done during SPECT/CT measurements.
The male Wistar rats received a short-term anesthetization by desflurane inhalation. Mean activities of 2.36 ± 0.27 MBq/kg of the ^177Lu-labelled tracers in isotonic saline were injected in a volume of 0.5 mL in the tail vein, with the following specific details: [^177Lu]citrate: 2.56 ± 0.07 MBq/kg, 128.58 body weight (BW, g), n = 4 (g); [^177Lu]BPAMD: 2.33 ± 0.11 MBq/kg, 159.41 BW (g), n = 4 (g); [^177Lu]BPAPD: 2.58 ± 0.24 MBq/kg, 156.38 BW (g), n = 4 (g); [^177Lu]BPPED: 2.27 ± 0.25 MBq/kg, 153.43 BW (g), n = 4 (g); [^177Lu]NO2AP^BP: 2.52 ± 0.25 MBq/kg, 173.82 BW (g), n = 4 (g); [^177Lu]DOTA(M^BP)2: 1.80 ± 0.10 MBq/kg, 181.64 BW (g), n = 4 (g); [^177Lu]DO2A(P^BP)2: 2.46 ± 0.15 MBq/kg, 150.60 BW (g), n = 4 (g). The compounds [^177Lu]DOTA(M^BP)2, [^177Lu]BPPED, and [^177Lu]BPAMD were further chosen for a biodistribution study after 8 days p.i. A mean activity of 19.0 ± 2.5 MBq/kg was injected. Animals were sacrificed after 5 min, 60 min, and 8 days p.i. Organs of interest were excised rapidly and weighed, and the ^177Lu activity was determined with a Wallac WIZARD automatic gamma counter (PerkinElmer, Germany) and decay corrected. The distribution data are expressed in %ID or are normalized to the BW as standard uptake value (SUV), which was calculated with the formula: SUV = (activity per g tissue)/(injected activity) × BW. The skeleton weight was calculated using the following: skeleton weight = 9.66 + 0.0355 × BW, and the total activities associated with the skeleton were calculated by using the activity concentration in the femur and the total skeleton weight.

[2] = Metabolite analysis and in vivo stability, arterial blood and urine samples; parameters: species or system Wistar rats
Excerpt: as §1
Arterial blood plasma samples were taken during SPECT/CT examinations after 1, 3, 5, 10, 20, 30, 60, and 120 min. p.i., and the in vivo metabolism of [^177Lu]BPAMD, [^177Lu]BPAPD, [^177Lu]BPPED, [^177Lu]NO2AP^BP, [^177Lu]DOTA(M^BP)2, and [^177Lu]DO2A(P^BP)2 was analyzed. Plasma was separated by centrifugation (3 min, 11,000×g) followed by precipitation of the plasma proteins with ice-cold methanol (1.5 parts per 1 part plasma) and centrifugation (3 min, 11,000×g). The supernatants were analyzed by radio-TLC and HPLC using the abovementioned methods for quality control. Additionally, urine samples were treated in the same way prior radio-TLC and radio-HPLC analysis.

[3] = 5 min p.i., mean of four animals
[4] = 60 min p.i., mean of four animals
[5] = 8 days p.i., mean for five animals

Ratio Bone/Adipose tissue ([1]; 5 min p.i.): 17.3
Ratio Bone/Adrenal gland ([1]; 5 min p.i.): 5.9
Ratio Bone/Blood ([1]; 5 min p.i.): 3.2
Ratio Bone/Brain ([1]; 5 min p.i.): 104.0
Ratio Bone/Harderian gland ([1]; 5 min p.i.): 10.4
Ratio Bone/Heart ([1]; 5 min p.i.): 8.0
Ratio Bone/Kidneys ([1]; 5 min p.i.): 1.3
Ratio Bone/Liver ([1]; 5 min p.i.): 8.7
Ratio Bone/Lung ([1]; 5 min p.i.): 5.5
Ratio Bone/Muscle ([1]; 5 min p.i.): 17.3
Ratio Bone/Pancreas ([1]; 5 min p.i.): 11.2
Ratio Bone/Spleen ([1]; 5 min p.i.): 10.7
Ratio Bone/Testes ([1]; 5 min p.i.): 11.6
Ratio Bone/Thymus ([1]; 5 min p.i.): 10.9
Biodistribution of radioactivity, Adipose tissue [1, 3]: 0.24 SUV
Biodistribution of radioactivity, Adrenal gland [1, 3]: 0.70 SUV
Biodistribution of radioactivity, Blood [1, 3]: 1.30 SUV
Biodistribution of radioactivity, Brain [1, 3]: 0.04 SUV
Biodistribution of radioactivity, Femur [1, 3]: 4.16 SUV
Biodistribution of radioactivity, Harderian gland [1, 3]: 0.40 SUV
Biodistribution of radioactivity, Heart [1, 3]: 0.52 SUV
Biodistribution of radioactivity, Kidneys [1, 3]: 3.09 SUV
Biodistribution of radioactivity, Liver [1, 3]: 0.48 SUV
Biodistribution of radioactivity, Lung [1, 3]: 0.75 SUV
Biodistribution of radioactivity, Muscle [1, 3]: 0.24 SUV
Biodistribution of radioactivity, Pancreas [1, 3]: 0.37 SUV
Biodistribution of radioactivity, Spleen [1, 3]: 0.39 SUV
Biodistribution of radioactivity, Testes [1, 3]: 0.36 SUV
Biodistribution of radioactivity, Thymus [1, 3]: 0.38 SUV
Ratio Bone/Adipose tissue ([1]; 60 min p.i.): 269.7
Ratio Bone/Adrenal gland ([1]; 60 min p.i.): 72.5
Ratio Bone/Blood ([1]; 60 min p.i.): 92.9
Ratio Bone/Brain ([1]; 60 min p.i.): 419.9
Ratio Bone/Harderian gland ([1]; 60 min p.i.): 36.4
Ratio Bone/Heart ([1]; 60 min p.i.): 141.1
Ratio Bone/Kidneys ([1]; 60 min p.i.): 14.9
Ratio Bone/Liver ([1]; 60 min p.i.): 42.3
Ratio Bone/Lung ([1]; 60 min p.i.): 67.5
Ratio Bone/Muscle ([1]; 60 min p.i.): 355.8
Ratio Bone/Pancreas ([1]; 60 min p.i.): 181.6
Ratio Bone/Spleen ([1]; 60 min p.i.): 41.0
Ratio Bone/Testes ([1]; 60 min p.i.): 185.1
Ratio Bone/Thymus ([1]; 60 min p.i.): 212.0
Biodistribution of radioactivity, Adipose tissue [1, 4]: 0.02 SUV
Biodistribution of radioactivity, Adrenal gland [1, 4]: 0.08 SUV
Biodistribution of radioactivity, Blood [1, 4]: 0.06 SUV
Biodistribution of radioactivity, Brain [1, 4]: 0.01 SUV
Biodistribution of radioactivity, Femur [1, 4]: 5.67 ± 0.10 SUV and 5.67 SUV
Biodistribution of radioactivity, Harderian gland [1, 4]: 0.16 SUV
Biodistribution of radioactivity, Heart [1, 4]: 0.04 SUV
Biodistribution of radioactivity, Kidneys [1, 4]: 0.38 SUV
Biodistribution of radioactivity, Liver [1, 4]: 0.13 SUV
Biodistribution of radioactivity, Lung [1, 4]: 0.08 SUV
Biodistribution of radioactivity, Muscle [1, 4]: 0.02 SUV
Biodistribution of radioactivity, Pancreas [1, 4]: 0.03 SUV
Biodistribution of radioactivity, Spleen [1, 4]: 0.14 SUV
Biodistribution of radioactivity, Testes [1, 4]: 0.03 SUV
Biodistribution of radioactivity, Thymus [1, 4]: 0.03 SUV
Ratio Bone/Adipose tissue ([1]; 8 days p.i.): 1231
Ratio Bone/Adrenal gland ([1]; 8 days p.i.): 159
Ratio Bone/Blood ([1]; 8 days p.i.): 5123
Ratio Bone/Brain ([1]; 8 days p.i.): 365
Ratio Bone/Harderian gland ([1]; 8 days p.i.): 46
Ratio Bone/Heart ([1]; 8 days p.i.): 653
Ratio Bone/Kidneys ([1]; 8 days p.i.): 59
Ratio Bone/Liver ([1]; 8 days p.i.): 189
Ratio Bone/Lung ([1]; 8 days p.i.): 637
Ratio Bone/Muscle ([1]; 8 days p.i.): 192
Ratio Bone/Pancreas ([1]; 8 days p.i.): 1104
Ratio Bone/Spleen ([1]; 8 days p.i.): 246
Ratio Bone/Testes ([1]; 8 days p.i.): 1214
Ratio Bone/Thymus ([1]; 8 days p.i.): 933
Biodistribution of radioactivity, Adipose tissue [1, 5]: 0.004 SUV
Biodistribution of radioactivity, Adrenal gland [1, 5]: 0.033 SUV
Biodistribution of radioactivity, Blood [1, 5]: 0.001 SUV
Biodistribution of radioactivity, Brain [1, 5]: 0.014 SUV
Biodistribution of radioactivity, Femur [1, 5]: 5.197 SUV
Biodistribution of radioactivity, Harderian gland [1, 5]: 0.113 SUV
Biodistribution of radioactivity, Heart [1, 5]: 0.008 SUV
Biodistribution of radioactivity, Kidneys [1, 5]: 0.088 SUV
Biodistribution of radioactivity, Liver [1, 5]: 0.027 SUV
Biodistribution of radioactivity, Lung [1, 5]: 0.008 SUV
Biodistribution of radioactivity, Muscle [1, 5]: 0.027 SUV
Biodistribution of radioactivity, Pancreas [1, 5]: 0.005 SUV
Biodistribution of radioactivity, Spleen [1, 5]: 0.021 SUV
Biodistribution of radioactivity, Testes [1, 5]: 0.004 SUV
Biodistribution of radioactivity, Thymus [1, 5]: 0.006 SUV
Total skeletal retention ([1]; 8 days p.i., calculated from femur activity concentration and total skeleton weight): constant over 8 days
Total skeleton retention ([1]; after 60 min, calculated from femur activity concentration and total skeleton weight): 56.3 ± 6.7 %ID
Blood half-life of the slow component (t1/2(β)) ([2]; arterial blood, single intravenous injection): 18.7 min
Metabolization in blood samples (radio-HPLC and TLC) ([2]; within a period of 120 min): no evidence of any metabolization
Structure (SMILES): O=C(O)CN1CCN(CC(=O)O)CCN(CP(=O)(O)CC(P(=O)(O)O)P(=O)(O)O)CCN(CC(=O)O)CC1 [[^177Lu]BPPED, metal not drawn]
